Tests used:
DU145 cells = assay: MTT cell growth assay, DU145 cells; format: cell-based, human; conditions: 15 uM on day 1, half the initial dose on days 2-4; 3′-propylamino oligonucleotides; vs water control; FIG. 1A
Procedure: (§1) Cells were plated at low density ([…] cells per well, depending on cell line) in the appropriate serum-supplemented medium in 96-well plates (one plate per MTT assay time point) and grown under standard conditions of cell culture. The following day (day 1) oligonucleotide, or water as control, was added to the culture medium to give a final concentration of 15 uM. Further oligonucleotide, equivalent to half the initial dose, was added to the culture medium on days two, three and four.
(§2) Cells were assayed using the MTT assay (Morgan (1998) Methods. Mol. Biol. 79, 179-183) on days one, three, five, seven and nine after plating. The culture medium was not changed throughout the duration of the experiment (which was the time required for untreated cells to grow to confluence). Experiments were performed in triplicate and bars represent the standard error of the data.

MCF-7 cells = assay: MTT cell growth assay, MCF-7 cells; format: cell-based, human; conditions: 15 uM on day 1, half the initial dose on days 2-4; 3′-propylamino oligonucleotides; vs water control; FIG. 1D
Procedure: as §1, §2

[1] = target: T1, GRO-binding protein/nucleolin (HeLa nuclear extracts) (Homo sapiens, UniProt P19338); assay: EMSA of 32P-labeled oligonucleotides with HeLa nuclear extracts; conditions: 32P-labeled oligonucleotide, FIG. 6A
T1 construct: HeLa nuclear extracts used in EMSAs were purchased from Promega Inc. (bandshift grade); host or cells: HeLa nuclear extract (bandshift grade), purchased
Procedure: Oligonucleotides were 5′-labeled with 32p using T4 kinase. Labeled oligonucleotide (final concentration 1 nM, approximately 50,000 cpm) was preincubated for thirty minutes at 37° C. either alone or in the presence of unlabeled competitor oligonucleotide. Nuclear extracts were added, and the sample was incubated a further thirty minutes at 37° C. Both the preincubation and binding reactions were carried out in Buffer A (20 mM Tris. HCl pH 7.4, 140 mM KCl, 2.5 mM MgCl2, 1 mM dithiothreitol, 0.2 mM phenylmethyl sulfonyl fluoride and 8% (v/v) glycerol). Electrophoresis was carried out using 5% polyacrylamide gels in TBE buffer (90 mM Tris borate, 2 mM EDTA).
HeLa nuclear extracts used in EMSAs were purchased from Promega Inc. (bandshift grade). Nuclear and cytoplasmic extracts from MDA-MB-231 cells were prepared using the protocol described in F. M. Ausubel et al. Ausubel et al. (Eds.) (1996) Current Protocols in Molecular Biology, Wiley, N.Y., Section 12.1. Plasma membrane proteins were prepared from MDA-MB-231 cells using a method previously described. Yao et al. (1996) Biochemical Pharmacology 51, 431-436; Naito et al. (1988) J. Biol. Chem. 263, 11887-11891.
To investigate further the mechanism of the growth modulatory effects, binding of the oligonucleotides to cellular proteins was examined. […]

[2] = target: T1, GRO-binding protein/nucleolin (HeLa nuclear extracts); assay: UV cross-linking of oligonucleotides to HeLa nuclear extracts; conditions: labeled oligonucleotide with HeLa nuclear extracts; FIG. 6C
Procedure: For the UV crosslinking experiments, samples were incubated as described above (EMSA). They were then placed on ice and irradiated at 5 cm from the source using the “autocross link” function of a Stratagene UV Stratalinker. Following irradiation, samples were electrophoresed under denaturing conditions on a 8% polyacrylamide-SDS gel using a standard Tris glycine buffer and visualized by autoradiography.
To determine the approximate molecular weight of the protein involved in complex A, and to confirm that competition for this complex results from direct binding of the protein to oligonucleotides, a UV cross-linking study was conducted. 5′-Labeled oligonucleotides and HeLa nuclear extracts were incubated alone or in the presence of unlabeled competitor oligonucleotides.
The samples were then irradiated with UV light resulting in cross-link formation between protein residues and thymidines in the oligonucleotide. The protein was thus radiolabeled and could be detected on a SDS-polyacrylamide gel.

[3] = target: T2, 106 kDa nuclear protein (p106, GRO-binding protein/nucleolin) (Homo sapiens, UniProt P19338); assay: Southwestern blot of HeLa nuclear extracts; conditions: 32P-labeled oligonucleotide, 4° C.; FIG. 6D
T2 construct: HeLa nuclear extracts used in EMSAs were purchased from Promega Inc. (bandshift grade); host or cells: HeLa nuclear extract (bandshift grade), purchased
Procedure: Nuclear extracts were electrophoresed on a 8% polyacrylamide-SDS gel and transferred to polyvinylidene difluoride (PVDF) membrane by electroblotting using a Tris glycine/methanol (10% v/v) buffer. Immobilized proteins were denatured and renatured by washing for thirty minutes at 4° C. with 6 M guanidine. HCl followed by washes in 1:1, 1:2 and 1:4 dilutions of 6M guanidine in HEPES binding buffer (25 mM HEPES pH 7.9, 4 mM KCl, 3 mM MgCl2). The membrane was blocked by washing for one hour in a 5% solution of non-fat dried milk (NDM) in binding buffer.
Hybridization of the labeled oligonucleotide (1-4×10^6 cpm) took place for two hours at 4° C. in HEPES binding buffer supplemented with 0.25% NDM, 0.05% Nonidet P […] salmon sperm DNA and […] of an unrelated, mixed sequence 35-mer oligonucleotide (5′-[…] CTTCCTTCCTCTCCA-3′SEQ ID No: 19). Membranes were washed in binding buffer and visualized by autoradiography.
The molecular weight of the nuclear protein was more accurately determined by Southwestern blotting. HeLa nuclear extracts were electrophoresed on an 8% polyacrylamide-SDS gel and transferred to a PVDF membrane. The membrane was blocked and cut into strips. Each strip was incubated at 4° C. with a 32P-labeled G-rich oligonucleotide in the presence of unrelated unlabeled double stranded and single stranded DNA to block non-specific binding.

[4] = Detection of G-quartets by UV thermal denaturation/renaturation; format: physicochemical; conditions: absorbance at 295 nm; FIG. 4
Procedure: Oligonucleotides were resuspended in Tm buffer (20 mM Tris HCl, pH 8.0, 140 mM KCl, 2.5 mM MgCl2) at a concentration such that A260=0.6 (molar concentrations ranged from […]). Samples were annealed by boiling for five minutes and allowing to cool slowly to room temperature and overnight incubation at 4° C. Thermal denaturation/renaturation experiments were carried out using an Amersham Pharmacia Biotech Ultrospec 2000 instrument equipped with a Peltier effect heated cuvette holder and temperature controller (Amersham Pharmacia Biotech). Absorbance at 295 nm was monitored over a temperature range of 25-95 or 20-90° C. at a heating/cooling rate of 0.5° C./min. To investigate the formation of G-quartet structures by the G-rich oligonucleotides, a U.V. melting technique described by […] et al. (1998) FEBS Lett. 435, 74-78 was used. This method relies on the fact that dissociation of G-quartets leads to a decrease in absorbance at 295 nm and is reported to give a more reliable indication of intramolecular G-quartet formation than measurement at 260 nm.

T1 sequence (P19338 whole entry): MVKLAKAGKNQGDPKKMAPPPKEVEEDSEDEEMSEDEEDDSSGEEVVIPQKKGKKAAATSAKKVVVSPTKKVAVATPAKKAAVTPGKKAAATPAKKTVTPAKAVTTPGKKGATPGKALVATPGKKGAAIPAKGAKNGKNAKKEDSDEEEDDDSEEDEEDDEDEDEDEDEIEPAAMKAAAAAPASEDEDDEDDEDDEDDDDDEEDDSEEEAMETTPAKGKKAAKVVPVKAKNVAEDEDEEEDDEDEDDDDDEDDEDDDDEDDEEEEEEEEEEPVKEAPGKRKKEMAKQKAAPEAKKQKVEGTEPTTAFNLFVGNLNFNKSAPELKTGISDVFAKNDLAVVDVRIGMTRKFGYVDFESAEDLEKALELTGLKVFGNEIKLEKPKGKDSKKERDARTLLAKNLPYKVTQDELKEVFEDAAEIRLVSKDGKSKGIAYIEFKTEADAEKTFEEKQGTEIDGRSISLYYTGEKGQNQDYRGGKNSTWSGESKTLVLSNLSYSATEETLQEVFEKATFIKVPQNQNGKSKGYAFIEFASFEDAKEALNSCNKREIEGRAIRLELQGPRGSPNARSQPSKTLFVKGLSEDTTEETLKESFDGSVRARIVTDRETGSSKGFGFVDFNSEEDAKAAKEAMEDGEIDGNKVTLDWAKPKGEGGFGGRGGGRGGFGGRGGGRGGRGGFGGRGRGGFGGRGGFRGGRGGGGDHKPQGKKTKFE
T2 sequence (P19338 whole entry): as above

| Substance | growth of DU145 cells (MTT) (DU145 cells) | growth of MCF-7 cells (MTT) (MCF-7 cells) | protein-oligonucleotide complex band (EMSA) [1] | UV cross-linked protein complex (approximately 100 kDa) [2] | hybridization to protein band at 106 kDa (Southwestern blot) [3] | G-quartet formation (UV annealing curve) [4] |
| --- | --- | --- | --- | --- | --- | --- |
| 5′-TTTGGTGGTGGTGG TTGTGGTGGTGGTGG-3′ [GR029A] | modulated proliferation | modulated proliferation | intense | formed this approximately 100 kDa complex | hybridized to a single protein band at 106 kDa | clearly indicating the presence of G-quartets |
| 5′-GTTGTTTGG GGTGGT-3′ (GTTGTTTGGGGTGGT; DNA, backbone not given here; further chemistry not fully specified) [GRO15A] | modulated proliferation | modulated proliferation | intense | crosslinked to a protein | hybridized to a single protein band at 106 kDa | suggestive of G-quartet formation |

Reference: US8114850B2, “Antiproliferative activity of G-rich oligonucleotides and method of using same to bind to nucleolin” (Advanced Cancer Therapeutics, LLC, priority 1999, dated 2012)
